Data: patent US5527804A, “4-carbamoyloxy-piperidine-1-carboxylic acid esters: inhibitors or cholesterol absorption” (American Home Products Corporation, priority 1994, dated 1996)
Read-outs that look alike come from different tables or passages of the source.

Key:
[1] = target: T1, cholesterol esterase (EC 3.1.1.13), CEH (Bos taurus, UniProt P30122); experiment: In vitro inhibition of cholesteryl ester formation by cholesterol esterase (CEH); assay type: biochemical
T1 construct: purchased Sigma Company, St. Louis, Mo; C-1892; host or cells: bovine pancreas
T1 sequence (P30122 19-597): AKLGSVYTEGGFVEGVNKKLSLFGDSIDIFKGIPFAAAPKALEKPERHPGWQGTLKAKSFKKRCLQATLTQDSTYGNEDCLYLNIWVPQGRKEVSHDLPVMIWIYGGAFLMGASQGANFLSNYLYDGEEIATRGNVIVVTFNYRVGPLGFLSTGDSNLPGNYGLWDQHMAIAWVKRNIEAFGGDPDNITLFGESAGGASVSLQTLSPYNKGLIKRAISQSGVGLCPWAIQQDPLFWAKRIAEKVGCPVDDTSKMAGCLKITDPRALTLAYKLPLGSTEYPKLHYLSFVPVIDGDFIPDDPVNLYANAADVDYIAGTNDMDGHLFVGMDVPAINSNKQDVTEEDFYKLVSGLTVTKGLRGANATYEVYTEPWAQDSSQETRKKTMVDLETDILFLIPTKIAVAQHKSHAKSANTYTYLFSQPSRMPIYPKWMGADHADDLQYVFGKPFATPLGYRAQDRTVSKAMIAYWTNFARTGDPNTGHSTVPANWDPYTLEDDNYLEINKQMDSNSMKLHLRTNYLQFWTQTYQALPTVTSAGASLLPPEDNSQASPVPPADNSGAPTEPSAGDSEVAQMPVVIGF
Procedure: In Vitro Assay: The ability of the compounds of this invention to inhibit the formation of cholesteryl esters and thereby interfere with and prevent assimilation of cholesterol into the lymphatic system and ultimately the blood stream was established by incubating the compounds at 37° C. with a mixture of cholesterol and oleic acid in the presence of buffered cholesterol esterase [(EC 3.1.1.13) Sigma Company, St. Louis, Mo., U.S.A., No. C-1892, from bovine pancreas] and measuring the amount of ester formed, according to the procedure of Field, J. of Lipid Research, 25, 389 (1984).

[2] = tested on: absorption of 14C-cholesterol; experiment: In vivo cholesterol absorption, serum radioactivity after oral [4-14C] cholesterol; parameters: species or system normal rats; details: normal rat, 6 hr, vs control
Procedure: In Vivo Assay: The in vivo cholesterol absorption studies were conducted in normal rats by oral administration of the compound being tested in propylene glycol and olive oil followed by oral administration of [4-^14 C] cholesterol in propylene glycol and olive oil, otherwise following the procedure of Cayen et al., J. Lipid Res. 20, 162 (1979). The serum radioactivity was measured at six hours after dosing. The results of this study are reported in Table I as percent decrease compared to control.

[3] = IC25 instead of IC50; 37° C.; cholesterol + oleic acid; bovine pancreas enzyme
[4] = 37° C.; cholesterol + oleic acid; bovine pancreas enzyme; read-out: In Vitro Results IC50 CEH

Compound	IC25 [1, 3] [nM]	Effect on Absorption of 14C-Chol, % Decrease ([2]; 10 mg/kg) [%]	IC50 ([1]; read-out: In Vitro Results IC50 CEH; 37° C.; cholesterol + oleic acid; bovine pancreas enzyme) [nM]	Effect on Absorption of 14C-Chol, % Decrease ([2]; 3 mg/kg) [%]	IC50 [1, 4] [nM]
O=C(NCCCCCCOC(=O)N1CCC(OC(=O)N2CCC3(CCCC3)CC2)CC1)Oc1ccc(Oc2ccccc2)cc1 [Example 7, 8-Aza-spiro[4.5]decane-8-carboxylic acid 1-{6-[(4-phenoxy-phenyl)-oxycarbonylamino]-hexyloxycarbonyl}-piperidin-4-yl ester]	200	50			
O=C(NCCCCCCOC(=O)N1CCC(OC(=O)NC2CCCCC2)CC1)Oc1ccc(Oc2ccccc2)cc1 [Example 9, 4-(Cyclohexylcarbamoyloxy)-piperidine-1-carboxylic acid 6-[(4-phenoxy-phenyl)-oxycarbonylamino]-hexyl ester]	300	46			
CCCCCCNC(=O)OC1CCN(C(=O)OCCCCCCNC(=O)Oc2ccc(Oc3ccccc3)cc2)CC1 [Example 6, 4-(Hexylcarbamoyloxy)-piperidine-1-carboxylic acid 6-[(4-phenoxy-phenyl)-oxycarbonylamino]-hexyl ester]			1100	49	
CCCCCCCCCCNC(=O)OC1CCN(C(=O)OCCCCCCNC(=O)Oc2ccc(Oc3ccccc3)cc2)CC1 [Example 8, 4-(Decylcarbamoyloxy)-piperidine-1-carboxylic acid 6-[(4-phenoxy-phenyl)-oxycarbonylamino]-hexyl ester]		43			3000
O=C(NCCCCCCOC(=O)N1CCC(OC(=O)NCCCCc2ccccc2)CC1)Oc1ccc(Oc2ccccc2)cc1 [Example 10, 4-(4-Phenyl-butyl-carbamoyloxy)-piperidine-1-carboxylic acid 6-[(4-phenoxy-phenyl)-oxycarbonylamino]-hexyl ester]	300	61			
O=C(NCCCCCCOC(=O)N1CCC(OC(=O)N2CCCCC2)CC1)Oc1ccc(Oc2ccccc2)cc1 [Example 11, 4-(Piperidine-1-carbonyloxy)-piperidine-1-carboxylic acid 6-[(4-phenoxy-phenyl)oxycarbonylamino]-hexyl ester]		81			5900
